In brackets after ≈: the same amount, converted by molar mass.
Legend:
[1] = test system: Streptococcus agalactiae; test: MIC, broth microdilution; format: cell-based; conditions: HPLC fractions, serial two-fold dilutions approximately 128 μg/ml to approximately 2 μg/ml
Excerpt: The eight bacterial strains listed in Table 1 are used in the antibacterial activity assays. Streptococcus agalactiae and S. uberis (gifts from D. Donovan, ARS, USDA, Beltsville, Md.), Lactobacillus fermentum laboratory strain number 0315-1 (Bischoff, et al., Biotechnology and Bioengineering 103:117-122 (2009)), Enterococcus faecalis (ATCC Accession Number 29212), Bacillus subtilis MW10 (Bacillus Genetic Stock Center Accession Number 1A751), Staphylococcus aureus (ATCC Accession Number 29213), Escherichia coli (ATCC Accession Number 25922), and Pseudomonas aeruginosa (ATCC Accession Number 27853) are obtained from the indicated source. S. uberis, S. agalactiae, S. aureus, E. coli, and P. aeruginosa are cultured in tryptic soy broth (TSB) at 37° C. TSB contains the following: peptone from casein 17.0 g/L; peptone from soymeal 3.0 g/L; D(+)glucose 2.5 g/L; sodium chloride 5.0 g/L; and di-potassium hydrogen phosphate 2.5 g/L. E. faecalis are cultured in Bacto Brain Heart Infusion broth (BHI) (Becton Dickenson, Franklin Lakes, N.J.) at 37° C. L. fermentum are cultured in MRS broth at 37° C. MRS broth contains the following: peptone from casein 10.0 g/L; meat extract 8.0 g/L; yeast extract 4.0 g/L; D(+)-glucose 20.0 g/L; di-potassium hydrogen phosphate 2.0 g/L; Tween® 80 1.0 g/L; di-ammonium hydrogen citrate 2.0 g/L; sodium acetate 5.0 g/L; magnesium sulfate 0.2 g/L; and manganese sulfate 0.04 g/L. […]
Fractions 5-14 that were obtained from the HPLC fractionation (above) are assayed for antibacterial activity against S. agalactiae by the broth dilution method with serial two-fold dilutions of each component ranging from approximately 128 μg/ml to approximately 2 μg/ml. Fraction 12, containing mannitol-liamocin B1 had the lowest minimum inhibitory concentration (i.e. highest antibacterial activity) of the fractions.

[2] = test system: S. agalactiae; test: Disc diffusion assay of HPLC fractions; format: cell-based, Streptococcus agalactiae; conditions: 5 mg/ml, 10 μl per 6 mm disc, 37° C. overnight
Experimental: Antibacterial activity for each fraction of the HPLC is measured qualitatively by disc diffusion assay. S. agalactiae at a density of 0.5 McFarland units are diluted 1:100 in PBS, and 20 μl are evenly spread on TSB agar media. Paper discs (6 mm diameter) are placed on surface. HPLC fractionated oils are dissolved to a concentration of 5 mg/ml in solvent (1:1 dimethylsulfoxide:2-butanone), and samples (10 μl) are applied to each disc. Plates are incubated at 37° C. overnight, and scored for a growth inhibition zone surrounding the disc, which indicates antibacterial activity. 5 mg/ml of purified oil is used as positive control, and acetonitrile solvent for HPLC is used as negative control.

[3] = test system: Streptococcus epidermis; conditions: cited from earlier work
[4] = test system: Enterococcus faecium; conditions: cited from earlier work
[5] = test system: E. faecalis; conditions: cited from earlier work
[6] = test system: three strains of Staphylococcus aureus; conditions: cited from earlier work

Molecule: mannitol-liamocin B1 [Fraction 12]
- Minimum Inhibitory Concentration ([1]; listed as 12): 16 µg/mL

Molecule: mannitol-liamocin A2 [Fraction 9]
- growth inhibition zone surrounding the disc (antibacterial activity, qualitative) [2]: exhibit bactericidal activity
- Minimum Inhibitory Concentration ([1]; listed as 9): 128 µg/mL

Molecule: mannitol-liamocin A2 [Fraction 10]
- Minimum Inhibitory Concentration ([1]; listed as 10): 64 µg/mL

Molecule: mannitol-liamocin B1 [Fraction 11]
- growth inhibition zone surrounding the disc (antibacterial activity, qualitative) [2]: exhibit bactericidal activity
- Minimum Inhibitory Concentration ([1]; listed as 11): 64 µg/mL

Molecule: mannitol-liamocin A1 [Fraction 8]
- growth inhibition zone surrounding the disc (antibacterial activity, qualitative) [2]: exhibit bactericidal activity
- Minimum Inhibitory Concentration ([1]; listed as 8): 64 µg/mL

Molecule: mannitol-liamocin B2 [Fraction 13]
- growth inhibition zone surrounding the disc (antibacterial activity, qualitative) [2]: exhibit bactericidal activity
- Minimum Inhibitory Concentration [1]: 128 µg/mL

Molecule: mannitol-liamocin A1 [Fraction 7]
- Minimum Inhibitory Concentration ([1]; listed as 7): >128 µg/mL

Molecule: CCCCC[C@@H](O)C[C@@H](O)CC(=O)O[C@H](CCCCC)C[C@@H](O)CC(=O)O[C@H](CCCCC)C[C@@H](O)CC(=O)O [Exophilin A]
- MIC [3]: > 100 µg/mL
- MIC [4]: 12.5 µg/mL (≈ 21.7 µM)
- MIC [5]: 25 µg/mL (≈ 43.3 µM)
- MIC [6]: 50 µg/mL (≈ 86.7 µM)

Source: patent US10544085B2, “Oils having antibacterial activity” (The United States of America, as Represented by the …, priority 2014, dated 2020)
